Experimental data from US8748417B2, “Amino-pyrrolidine-azetidine diamides as monoacylglycerol lipase inhibitors” (Janssen Pharmaceutica, NV, priority 2010, dated 2014).

Experiments:
[1] = molecular target: T1, purified wild type MGL (wt-MGLL 6H-11-313) (Homo sapiens, UniProt Q99685); experiment: MGL enzyme activity assay (4MU-B cleavage), wild type MGL; assay type: biochemical; conditions: wild type MGL 5 nM, 4MU-B 10 μM, 37° C.; read-out: MGL wild type inh IC50
T1 construct: purified wild type MGL (wt-MGLL 6H-11-313)
T1 sequence (Q99685 1-303): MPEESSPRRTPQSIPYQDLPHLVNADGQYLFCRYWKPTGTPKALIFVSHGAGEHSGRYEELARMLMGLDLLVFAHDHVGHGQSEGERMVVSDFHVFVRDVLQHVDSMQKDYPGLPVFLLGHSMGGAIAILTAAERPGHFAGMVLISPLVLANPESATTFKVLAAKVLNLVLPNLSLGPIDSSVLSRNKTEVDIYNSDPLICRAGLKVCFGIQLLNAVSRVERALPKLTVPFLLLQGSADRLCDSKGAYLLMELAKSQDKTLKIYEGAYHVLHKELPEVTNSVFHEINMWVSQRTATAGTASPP
Outline: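 Enzyme in 20 mM PIPES pH 7.0, 150 mM NaCl, 0.001% Tween 20 with 4MU-B at 10 μM final and MGL at 5 nM final; compounds 17 to 0.0003 μM final, enzyme added last. Fluorescence (ex 335/em 440 nm) followed at 37° C for 5 min; IC50 from fit of fractional activity versus inhibitor concentration.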

[2] = test system: MGL (rat brain homogenate); experiment: 2-AG accumulation assay in rat brain homogenate; assay type: biochemical; conditions: compound 1 μM, percent of vehicle 2-AG accumulation
Outline: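 Rat brain homogenate was incubated with compound for 15 min at 37° C., after which CaCl2 was added to a final concentration of 10 mM and incubation continued for 15 min at 37° C. in 5 mL total. Reactions were stopped with 6 mL of 2:1 chloroform/methanol, and 2-AG accumulated in the organic phase was quantified by HPLC/MS.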

SMILES | IC50 [1] [nM] | Rat Brain 2AG % VehCntrl (%) @1 μM [2] [%]
Cn1cc(-c2cccc(C(F)(F)F)c2)c2ccc(C(=O)N3CC(N[C@H]4CCN(C(=O)c5ccccc5)C4)C3)cc21 [Cpd 166, (3S)-N-[1-({1-Methyl-3-[3-(trifluoromethyl)phenyl]-1H-indol-6-yl}carbonyl)azetidin-3-yl]-1-(phenylcarbonyl)pyrrolidin-3-amine] | 49.8 | 322
O=C(c1nccs1)N1CC[C@H](NC2CN(C(=O)c3sc4cc(C(F)(F)F)ccc4c3Cl)C2)C1 [Cpd 167, (3S)-N-(1-{[3-Chloro-6-(trifluoromethyl)-1-benzothiophen-2-yl]carbonyl}azetidin-3-yl)-1-(1,3-thiazol-2-ylcarbonyl)pyrrolidin-3-amine] | 11 | 695
Cn1cc(-c2ccccc2)c2ccc(C(=O)N3CC(N[C@H]4CCN(C(=O)c5nccs5)C4)C3)cc21 [Cpd 169, (3S)-N-{1-[(1-Methyl-3-phenyl-1H-indol-6-yl)carbonyl]azetidin-3-yl}-1-(1,3-thiazol-2-ylcarbonyl)pyrrolidin-3-amine] | 13.9 | 482
O=C(c1ccccc1)N1CC[C@H](NC2CN(C(=O)c3sc4ccc(-c5ccccc5)cc4c3F)C2)C1 [Cpd 173, (3S)-N-{1-[(3-Fluoro-5-phenyl-1-benzothiophen-2-yl)carbonyl]azetidin-3-yl}-1-(phenylcarbonyl)pyrrolidin-3-amine] | < 5 | 628
O=C(c1ccccc1)N1CC[C@H](NC2CN(C(=O)c3sc4ccc(Cl)cc4c3C(F)(F)F)C2)C1 [Cpd 180, (3S)-N-(1-{[5-Chloro-3-(trifluoromethyl)-1-benzothiophen-2-yl]carbonyl}azetidin-3-yl)-1-(phenylcarbonyl)pyrrolidin-3-amine] | 42.7 | 333
O=C(c1nccs1)N1CC[C@H](NC2CN(C(=O)c3sc4cc(Cl)ccc4c3C(F)(F)F)C2)C1 [Cpd 183, (3S)-N-(1-{[6-Chloro-3-(trifluoromethyl)-1-benzothiophen-2-yl]carbonyl}azetidin-3-yl)-1-(1,3-thiazol-2-ylcarbonyl)pyrrolidin-3-amine] | 23.1 | 316
Cc1ccc2c(C(F)(F)F)c(C(=O)N3CC(N[C@H]4CCN(C(=O)c5nccs5)C4)C3)sc2c1 [Cpd 186, (3S)-N-(1-{[6-Methyl-3-(trifluoromethyl)-1-benzothiophen-2-yl]carbonyl}azetidin-3-yl)-1-(1,3-thiazol-2-ylcarbonyl)pyrrolidin-3-amine] | 90.5 | 563
O=C(c1ccc2c(-c3ccccc3)c[nH]c2c1)N1CC(N[C@H]2CCN(C(=O)c3nccs3)C2)C1 [Cpd 187, (3S)-N-{1-[(3-Phenyl-1H-indol-6-yl)carbonyl]azetidin-3-yl}-1-(1,3-thiazol-2-ylcarbonyl)pyrrolidin-3-amine] | < 5 | 242
O=C(c1ccc2c(-c3ccccc3)c[nH]c2c1)N1CC(N[C@H]2CCN(C(=O)c3cscn3)C2)C1 [Cpd 188, (3S)-N-{1-[(3-Phenyl-1H-indol-6-yl)carbonyl]azetidin-3-yl}-1-(1,3-thiazol-4-ylcarbonyl)pyrrolidin-3-amine] | 74.9 | 140
O=C(c1ccc2c(-c3ccc(F)cc3)c[nH]c2c1)N1CC(N[C@H]2CCN(C(=O)c3nccs3)C2)C1 [Cpd 189, (3S)-N-(1-{[3-(4-Fluorophenyl)-1H-indol-6-yl]carbonyl}azetidin-3-yl)-1-(1,3-thiazol-2-ylcarbonyl)pyrrolidin-3-amine] | 12.5 | 277
Cn1cc(-c2ccc(F)cc2)c2ccc(C(=O)N3CC(N[C@H]4CCN(C(=O)c5nccs5)C4)C3)cc21 [Cpd 192, (3S)-N-(1-{[3-(4-Fluorophenyl)-1-methyl-1H-indol-6-yl]carbonyl}azetidin-3-yl)-1-(1,3-thiazol-2-ylcarbonyl)pyrrolidin-3-amine] | < 5 | 374
Cn1cc(-c2ccc(F)cc2)c2ccc(C(=O)N3CC(N[C@H]4CCN(C(=O)c5cscn5)C4)C3)cc21 [Cpd 193, (3S)-N-(1-{[3-(4-Fluorophenyl)-1-methyl-1H-indol-6-yl]carbonyl}azetidin-3-yl)-1-(1,3-thiazol-4-ylcarbonyl)pyrrolidin-3-amine] | 19 | 219
Cn1cc(-c2ccc(F)cc2)c2ccc(C(=O)N3CC(N[C@H]4CCN(C(=O)c5ccccc5)C4)C3)cc21 [Cpd 194, (3S)-N-(1-{[3-(4-Fluorophenyl)-1-methyl-1H-indol-6-yl]carbonyl}azetidin-3-yl)-1-(phenylcarbonyl)pyrrolidin-3-amine] | 44.9 | 178
Cn1nc(-c2ccccc2)c2cc(C(=O)N3CC(N[C@H]4CCN(C(=O)c5nccs5)C4)C3)ccc21 [Cpd 195, (3S)-N-{1-[(1-Methyl-3-phenyl-1H-indazol-5-yl)carbonyl]azetidin-3-yl}-1-(1,3-thiazol-2-ylcarbonyl)pyrrolidin-3-amine] | 22.4 | 472

More lines, main results first:

IC50 [1] [nM] | SMILES | Rat Brain 2AG % VehCntrl (%) @1 μM [2] [%]
32.2 | O=C(c1cscn1)N1CC[C@H](NC2CN(C(=O)c3sc4cc(C(F)(F)F)ccc4c3Cl)C2)C1 [Cpd 168, (3S)-N-(1-{[3-Chloro-6-(trifluoromethyl)-1-benzothiophen-2-yl]carbonyl}azetidin-3-yl)-1-(1,3-thiazol-4-ylcarbonyl)pyrrolidin-3-amine] | 611
< 5 | O=C(c1nccs1)N1CC[C@H](NC2CN(C(=O)c3sc4ccc(-c5ccccc5)cc4c3F)C2)C1 [Cpd 171, (3S)-N-{1-[(3-Fluoro-5-phenyl-1-benzothiophen-2-yl)carbonyl]azetidin-3-yl}-1-(1,3-thiazol-2-ylcarbonyl)pyrrolidin-3-amine] | 614
< 5 | O=C(c1cscn1)N1CC[C@H](NC2CN(C(=O)c3sc4ccc(-c5ccccc5)cc4c3F)C2)C1 [Cpd 172, (3S)-N-{1-[(3-Fluoro-5-phenyl-1-benzothiophen-2-yl)carbonyl]azetidin-3-yl}-1-(1,3-thiazol-4-ylcarbonyl)pyrrolidin-3-amine] | 532
10 | O=C(c1nccs1)N1CC[C@H](NC2CN(C(=O)c3sc4ccc(-c5ccc(C(F)(F)F)cc5)cc4c3F)C2)C1 [Cpd 174, (3S)-N-[1-({3-Fluoro-5-[4-(trifluoromethyl)phenyl]-1-benzothiophen-2-yl}carbonyl)azetidin-3-yl]-1-(1,3-thiazol-2-ylcarbonyl)pyrrolidin-3-amine] | 791
< 5 | O=C(c1cscn1)N1CC[C@H](NC2CN(C(=O)c3sc4ccc(-c5ccc(C(F)(F)F)cc5)cc4c3F)C2)C1 [Cpd 175, (3S)-N-[1-({3-Fluoro-5-[4-(trifluoromethyl)phenyl]-1-benzothiophen-2-yl}carbonyl)azetidin-3-yl]-1-(1,3-thiazol-4-ylcarbonyl)pyrrolidin-3-amine] | 734
6 | O=C(c1ccccc1)N1CC[C@H](NC2CN(C(=O)c3sc4ccc(-c5ccc(C(F)(F)F)cc5)cc4c3F)C2)C1 [Cpd 176, (3S)-N-[1-({3-Fluoro-5-[4-(trifluoromethyl)phenyl]-1-benzothiophen-2-yl}carbonyl)azetidin-3-yl]-1-(phenylcarbonyl)pyrrolidin-3-amine] | 832
16 | O=C(c1nccs1)N1CC[C@H](NC2CN(C(=O)c3sc4cc(-c5ccc(C(F)(F)F)cc5)ccc4c3F)C2)C1 [Cpd 177, (3S)-N-[1-({3-Fluoro-6-[4-(trifluoromethyl)phenyl]-1-benzothiophen-2-yl}carbonyl)azetidin-3-yl]-1-(1,3-thiazol-2-ylcarbonyl)pyrrolidin-3-amine] | 766
< 5 | O=C(c1cscn1)N1CC[C@H](NC2CN(C(=O)c3sc4cc(-c5ccc(C(F)(F)F)cc5)ccc4c3F)C2)C1 [Cpd 178, (3S)-N-[1-({3-Fluoro-6-[4-(trifluoromethyl)phenyl]-1-benzothiophen-2-yl}carbonyl)azetidin-3-yl]-1-(1,3-thiazol-4-ylcarbonyl)pyrrolidin-3-amine] | 297
12 | O=C(c1ccccc1)N1CC[C@H](NC2CN(C(=O)c3sc4cc(-c5ccc(C(F)(F)F)cc5)ccc4c3F)C2)C1 [Cpd 179, (3S)-N-[1-({3-Fluoro-6-[4-(trifluoromethyl)phenyl]-1-benzothiophen-2-yl}carbonyl)azetidin-3-yl]-1-(phenylcarbonyl)pyrrolidin-3-amine] | 259
39.6 | O=C(c1cscn1)N1CC[C@H](NC2CN(C(=O)c3sc4ccc(Cl)cc4c3C(F)(F)F)C2)C1 [Cpd 181, (3S)-N-(1-{[5-Chloro-3-(trifluoromethyl)-1-benzothiophen-2-yl]carbonyl}azetidin-3-yl)-1-(1,3-thiazol-4-ylcarbonyl)pyrrolidin-3-amine] | 241
